Data published in ChEMBL document CHEMBL6078666, “Discovery of Novel Coumarin Pleuromutilin Derivatives as Potent Anti-MRSA Agents” (J Med Chem, 2024).
In brackets after ≈: the same amount, converted by molar mass.

What was measured:
Format in all cases: functional
[1] = test system: Streptococcus pneumoniae; assay: Ratio of MBC to MIC against penicillin-resistant Streptococcus pneumoniae ATCC 51916
[2] = test system: Staphylococcus aureus; assay: Ratio of MBC to MIC against Staphylococcus aureus ATCC 43300
[3] = test system: Enterococcus faecium; assay: Ratio of MBC to MIC against vancomycin-resistant Enterococcus faecium ATCC 700221
[4] = test system: Staphylococcus epidermidis; assay: Ratio of MBC to MIC against Staphylococcus epidermidis ATCC 51625
[5] = test system: Staphylococcus epidermidis; assay: Antibacterial activity against Staphylococcus epidermidis ATCC 51625 assessed as bacterial growth inhibition measured after 20 hrs by broth dilution method
[6] = test system: Enterococcus faecium; assay: Antibacterial activity against vancomycin-resistant Enterococcus faecium ATCC 51559 assessed as bacterial growth inhibition measured after 20 hrs by broth dilution method
[7] = test system: Enterococcus faecium; assay: Ratio of MBC to MIC against vancomycin-resistant Enterococcus faecium ATCC 51559
[8] = test system: Enterococcus faecium; assay: Antibacterial activity against vancomycin-resistant Enterococcus faecium ATCC 700221 assessed as bacterial growth inhibition measured after 20 hrs by broth dilution method
[9] = test system: Staphylococcus aureus; assay: Antibacterial activity against methicillin-resistant Staphylococcus aureus ATCC 43300 assessed as bacterial growth inhibition measured after 20 hrs by broth dilution method
[10] = test system: Staphylococcus aureus; assay: Antibacterial activity against methicillin-resistant Staphylococcus aureus ATCC 33591 assessed as bacterial growth inhibition measured after 20 hrs by broth dilution method
[11] = test system: Streptococcus pneumoniae; assay: Ratio of MBC to MIC against penicillin-intermediate Streptococcus pneumoniae ATCC 49619
[12] = test system: Streptococcus pneumoniae; assay: Antibacterial activity against penicillin-intermediate Streptococcus pneumoniae ATCC 49619 assessed as bacterial growth inhibition measured after 20 hrs by broth dilution method
[13] = test system: Streptococcus pneumoniae; assay: Antibacterial activity against penicillin-resistant Streptococcus pneumoniae ATCC 51916 assessed as bacterial growth inhibition measured after 20 hrs by broth dilution method
[14] = test system: Staphylococcus epidermidis; assay: Antibacterial activity against methicillin-resistant Staphylococcus epidermidis clinical isolate 202409454 assessed as bacterial growth inhibition measured after 20 hrs by broth dilution method
[15] = test system: Staphylococcus aureus; assay: Antibacterial activity against methicillin-resistant Staphylococcus aureus clinical isolate 202311772 assessed as bacterial growth inhibition measured after 20 hrs by broth dilution method
[16] = test system: Enterococcus faecium; assay: Antibacterial activity against vancomycin-resistant Enterococcus faecium clinical isolate 202308456 assessed as bacterial growth inhibition measured after 20 hrs by broth dilution method
[17] = test system: Staphylococcus epidermidis; assay: Antibacterial activity against methicillin-resistant Staphylococcus epidermidis clinical isolate 202409139 assessed as bacterial growth inhibition measured after 20 hrs by broth dilution method
[18] = test system: Staphylococcus aureus; assay: Antibacterial activity against methicillin-resistant Staphylococcus aureus clinical isolate 202405157 assessed as bacterial growth inhibition measured after 20 hrs by broth dilution method
[19] = test system: Staphylococcus aureus; assay: Ratio of MBC to MIC against methicillin-resistant Staphylococcus aureus clinical isolate 202311772
[20] = test system: Staphylococcus aureus; assay: Antibacterial activity against methicillin-resistant Staphylococcus aureus clinical isolate 202313160 assessed as bacterial growth inhibition measured after 20 hrs by broth dilution method
[21] = test system: Enterococcus faecium; assay: Ratio of MBC to MIC against vancomycin-resistant Enterococcus faecium clinical isolate 202308456
[22] = test system: Staphylococcus epidermidis; assay: Ratio of MBC to MIC against methicillin-resistant Staphylococcus epidermidis clinical isolate 202409454
[23] = test system: Staphylococcus aureus; assay: Ratio of MBC to MIC against methicillin-resistant Staphylococcus aureus ATCC 33591
[24] = test system: Staphylococcus aureus; assay: Ratio of MBC to MIC against methicillin-resistant Staphylococcus aureus clinical isolate 202313160
[25] = test system: Staphylococcus aureus; assay: Ratio of MBC to MIC against methicillin-resistant Staphylococcus aureus clinical isolate 202405157

`C=C[C@]1(C)C[C@@H](OC(=O)CSc2cc(=O)oc3ccc(Br)cc23)[C@]2(C)[C@H](C)CC[C@]3(CCC(=O)[C@H]32)[C@@H](C)[C@@H]1O` showed a Ratio [1] greater than 4, a Ratio [2] greater than 4 and a Ratio [3] greater than 4. The Ratio [4] was greater than 4, the MIC [5] was 0.063 µg/mL (≈ 0.102 µM) and the MIC [6] was 0.25 µg/mL (≈ 0.405 µM). The Ratio [7] was greater than 4, the MIC [8] was 0.25 µg/mL (≈ 0.405 µM) and the MIC [9] was 0.25 µg/mL (≈ 0.405 µM). The MIC [10] was 0.125 µg/mL (≈ 0.202 µM), the Ratio [11] was 2 and the MIC [12] was 0.25 µg/mL (≈ 0.405 µM). For the same molecule, the MIC [13] was 0.063 µg/mL (≈ 0.102 µM).

For `C=C[C@]1(C)C[C@@H](OC(=O)CSCCOc2cc(=O)oc3cc(Br)ccc23)[C@]2(C)[C@H](C)CC[C@]3(CCC(=O)[C@H]32)[C@@H](C)[C@@H]1O`, the Ratio [2] was greater than 4, the Ratio [3] was 2 and the Ratio [4] was greater than 4. It also gave an MIC [5] of 0.125 µg/mL (≈ 0.189 µM), an MIC [6] of 0.5 µg/mL (≈ 0.756 µM) and a Ratio [7] of 2. The MIC [8] was 0.125 µg/mL (≈ 0.189 µM), the MIC [9] was 0.25 µg/mL (≈ 0.378 µM) and the MIC [10] was 0.125 µg/mL (≈ 0.189 µM). For the same molecule, the Ratio [11] was greater than 4, the MIC [12] was 0.125 µg/mL (≈ 0.189 µM) and the MIC [13] was 0.25 µg/mL (≈ 0.378 µM).

`C=C[C@]1(C)C[C@@H](OC(=O)CSc2cc(=O)oc3cc(F)ccc23)[C@]2(C)[C@H](C)CC[C@]3(CCC(=O)[C@H]32)[C@@H](C)[C@@H]1O` showed an MIC [14] of 0.063 µg/mL (≈ 0.113 µM), a Ratio [1] of 4 and a Ratio [2] of 4. For the same molecule, the MIC [15] was 0.031 µg/mL (≈ 0.0557 µM), the MIC [16] was 0.031 µg/mL (≈ 0.0557 µM) and the Ratio [3] was 1. It also gave a Ratio [4] greater than 4, an MIC [5] of 0.031 µg/mL (≈ 0.0557 µM) and an MIC [17] of 0.125 µg/mL (≈ 0.225 µM). It also gave an MIC [6] of 0.031 µg/mL (≈ 0.0557 µM), an MIC [18] of 0.063 µg/mL (≈ 0.113 µM) and a Ratio [7] of 1. The Ratio [19] was 2, the MIC [8] was 0.031 µg/mL (≈ 0.0557 µM) and the MIC [9] was 0.063 µg/mL (≈ 0.113 µM). For the same molecule, the MIC [20] was 0.063 µg/mL (≈ 0.113 µM), the Ratio [21] was 1 and the Ratio [22] was 2. The MIC [10] was 0.031 µg/mL (≈ 0.0557 µM), the Ratio [11] was 2 and the MIC [12] was 0.063 µg/mL (≈ 0.113 µM). The MIC [13] was 0.125 µg/mL (≈ 0.225 µM).

`C=C[C@]1(C)C[C@@H](OC(=O)CSc2cc(=O)oc3cc(C)ccc23)[C@]2(C)[C@H](C)CC[C@]3(CCC(=O)[C@H]32)[C@@H](C)[C@@H]1O` gave an MIC [14] of 0.063 µg/mL (≈ 0.114 µM), a Ratio [2] of 2 and an MIC [15] of 0.031 µg/mL (≈ 0.0561 µM). For the same molecule, the MIC [16] was 0.063 µg/mL (≈ 0.114 µM), the Ratio [23] was greater than 4 and the Ratio [3] was 2. For the same molecule, the Ratio [4] was greater than 4, the MIC [5] was 0.016 µg/mL (≈ 0.0289 µM) and the MIC [17] was 0.125 µg/mL (≈ 0.226 µM). The MIC [6] was 0.063 µg/mL (≈ 0.114 µM), the MIC [18] was 0.125 µg/mL (≈ 0.226 µM) and the Ratio [7] was 2. The MIC [8] was 0.031 µg/mL (≈ 0.0561 µM), the MIC [9] was 0.063 µg/mL (≈ 0.114 µM) and the Ratio [24] was 4. For the same molecule, the MIC [20] was 0.125 µg/mL (≈ 0.226 µM), the Ratio [21] was 2 and the MIC [10] was 0.031 µg/mL (≈ 0.0561 µM). It also gave a Ratio [25] of 4, a Ratio [11] greater than 4 and an MIC [12] of 0.063 µg/mL (≈ 0.114 µM).

For `C=C[C@]1(C)C[C@@H](OC(=O)CSCCOc2cc(=O)oc3ccc(OC)cc23)[C@]2(C)[C@H](C)CC[C@]3(CCC(=O)[C@H]32)[C@@H](C)[C@@H]1O`, the Ratio [2] was greater than 4, the Ratio [3] was greater than 4 and the Ratio [4] was 4. It also gave an MIC [5] of 0.031 µg/mL (≈ 0.0506 µM), an MIC [6] of 0.25 µg/mL (≈ 0.408 µM) and a Ratio [7] of 1. For the same molecule, the MIC [8] was 0.063 µg/mL (≈ 0.103 µM), the MIC [9] was 0.25 µg/mL (≈ 0.408 µM) and the MIC [10] was 0.125 µg/mL (≈ 0.204 µM). It also gave a Ratio [11] greater than 4, an MIC [12] of 0.125 µg/mL (≈ 0.204 µM) and an MIC [13] of 0.125 µg/mL (≈ 0.204 µM).

`C=C[C@]1(C)C[C@@H](OC(=O)CSCCOc2cc(=O)oc3cc(Cl)ccc23)[C@]2(C)[C@H](C)CC[C@]3(CCC(=O)[C@H]32)[C@@H](C)[C@@H]1O` was tested, and the Ratio [1] was 2, the Ratio [2] was greater than 4 and the Ratio [3] was greater than 4. The Ratio [4] was greater than 4, the MIC [5] was 0.125 µg/mL (≈ 0.203 µM) and the MIC [6] was 0.5 µg/mL (≈ 0.81 µM). It also gave a Ratio [7] greater than 4, an MIC [8] of 0.125 µg/mL (≈ 0.203 µM) and an MIC [9] of 1 µg/mL (≈ 1.62 µM). For the same molecule, the MIC [10] was 0.25 µg/mL (≈ 0.405 µM), the Ratio [11] was greater than 4 and the MIC [12] was 0.063 µg/mL (≈ 0.102 µM). It also gave an MIC [13] of 0.125 µg/mL (≈ 0.203 µM).

Work on `C=C[C@]1(C)C[C@@H](OC(=O)CSCCOc2cc(=O)oc3ccc(C)cc23)[C@]2(C)[C@H](C)CC[C@]3(CCC(=O)[C@H]32)[C@@H](C)[C@@H]1O` yielded a Ratio [1] greater than 4, a Ratio [2] greater than 4 and a Ratio [3] greater than 4. It also gave a Ratio [4] greater than 4, an MIC [5] of 0.125 µg/mL (≈ 0.209 µM) and an MIC [6] of 0.25 µg/mL (≈ 0.419 µM). For the same molecule, the Ratio [7] was 1, the MIC [8] was 0.125 µg/mL (≈ 0.209 µM) and the MIC [9] was 0.125 µg/mL (≈ 0.209 µM). It also gave an MIC [10] of 0.25 µg/mL (≈ 0.419 µM), a Ratio [11] of 2 and an MIC [12] of 0.063 µg/mL (≈ 0.106 µM). The MIC [13] was 0.25 µg/mL (≈ 0.419 µM).

`C=C[C@]1(C)C[C@@H](OC(=O)CSCCOc2cc(=O)oc3ccc(F)cc23)[C@]2(C)[C@H](C)CC[C@]3(CCC(=O)[C@H]32)[C@@H](C)[C@@H]1O` showed a Ratio [2] greater than 4, a Ratio [3] greater than 4 and a Ratio [4] greater than 4. The MIC [5] was 0.125 µg/mL (≈ 0.208 µM), the MIC [6] was 8 µg/mL (≈ 13.3 µM) and the Ratio [7] was 4. For the same molecule, the MIC [8] was 1 µg/mL (≈ 1.66 µM), the MIC [9] was 0.5 µg/mL (≈ 0.832 µM) and the MIC [10] was 0.5 µg/mL (≈ 0.832 µM). For the same molecule, the Ratio [11] was greater than 4, the MIC [12] was 1 µg/mL (≈ 1.66 µM) and the MIC [13] was 1 µg/mL (≈ 1.66 µM).
